Assay results: paper PMC6414696 (mBio, 2019)
In brackets after ≈: the same amount, converted by molar mass. Where two headings read alike, the source gives them in different places. Blank lines part the entries; values can stand above or below the compound they belong to.

Experiments:
A. baumannii ARC5955 = experiment: Neutropenic murine thigh infection model; assay type: in vivo; details: thigh tissue, CD-1 mice, 24 h after initiation of therapy
ADC-7 β-lactamase = ADC-7 β-lactamase (Acinetobacter baumannii, UniProt Q6DRA1); experiment: β-Lactamase steady-state kinetic analysis, ADC-7; assay type: biochemical, A. baumannii
OXA-58 β-lactamase [1] = molecular target: T1, OXA-58 β-lactamase (Acinetobacter baumannii, UniProt Q2TR58); experiment: β-Lactamase steady-state kinetic analysis, OXA-58; assay type: biochemical, Acinetobacter spp.
T1 sequence (Q2TR58 22-280): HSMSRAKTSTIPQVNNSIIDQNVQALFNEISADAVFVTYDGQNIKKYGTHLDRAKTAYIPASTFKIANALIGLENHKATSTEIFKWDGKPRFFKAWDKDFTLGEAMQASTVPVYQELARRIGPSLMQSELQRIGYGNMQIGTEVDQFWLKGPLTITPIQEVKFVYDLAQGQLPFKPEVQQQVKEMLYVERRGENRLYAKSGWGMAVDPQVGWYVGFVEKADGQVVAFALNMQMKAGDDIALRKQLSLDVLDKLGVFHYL

OXA-66 β-lactamase = OXA-66 β-lactamase (Acinetobacter baumannii, UniProt Q58XD2); experiment: β-Lactamase steady-state kinetic analysis, OXA-66; assay type: biochemical, A. baumannii
Chain of OXA-66 β-lactamase (Q58XD2 entry or part of it): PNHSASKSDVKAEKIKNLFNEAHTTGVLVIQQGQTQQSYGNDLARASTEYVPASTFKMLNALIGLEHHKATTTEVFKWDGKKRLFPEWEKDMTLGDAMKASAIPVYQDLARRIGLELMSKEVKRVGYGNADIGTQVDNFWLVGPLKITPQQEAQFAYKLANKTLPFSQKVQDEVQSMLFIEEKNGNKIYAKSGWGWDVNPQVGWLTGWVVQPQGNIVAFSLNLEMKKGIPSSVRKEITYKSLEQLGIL

OXA-58 β-lactamase [2] = molecular target: T1, OXA-58 β-lactamase; experiment: OXA-58 acyl-transfer experiment (mass spectrometry), KPC-2 as recipient; assay type: biochemical; details: 10 µM each, 15 s to 24 h
OXA-48 = details: cited from earlier work
OXA-10 = details: cited from earlier work
OXA-23 = details: range given jointly for several OXA enzymes; cited from earlier work
OXA-24/40 = details: range given jointly for several OXA enzymes; cited from earlier work
KPC-2 β-lactamase = details: cited from earlier work
OXA 24/40 = details: cited from earlier work
[3] = system: A. baumannii clinical isolates; experiment: Broth microdilution MIC susceptibility testing against carbapenems; assay type: cell-based, Acinetobacter baumannii
[4] = read-out: koff (residence time)

Compound: CC1=C[C@@H]2CN(C(=O)N2OS(=O)(=O)O)[C@@H]1C(N)=O [ETX2514]
Log10 CFU/g (A. baumannii ARC5955; 50 mg/kg SC/q3h): 8.8 log10 CFU/g | Change in log10 CFU/g (A. baumannii ARC5955; 50 mg/kg SC/q3h, 50 mg/kg): 2.2 log10 CFU/g | Kd (ADC-7 β-lactamase): 1 ± 0.1 nM | Ki (ADC-7 β-lactamase): 110 ± 10 nM | kinact/KI (ADC-7 β-lactamase; pH 7.4, read-out: k2/Ki): 1e+06 ± 1e+11 M⁻¹ s⁻¹ | koff (ADC-7 β-lactamase; [4]): 0.0008 ± 1e-08 s⁻¹ | Kd (OXA-58 β-lactamase [1]): 1 ± 0.2 nM | Ki (OXA-58 β-lactamase [1]): 390 ± 40 nM | kinact/KI (OXA-58 β-lactamase [1]; pH 7.4, read-out: k2/Ki): 250000 ± 3e+09 M⁻¹ s⁻¹ | koff (OXA-58 β-lactamase [1]; [4]): 0.00016 s⁻¹ | Ki (OXA-66 β-lactamase): 43000 ± 4000 nM | acyl transfer from acylated OXA-58 to KPC-2 (OXA-58 β-lactamase [2]): did not transfer to KPC-2 | k2/Ki (OXA-48): 8 ± 2 × 10^5 M^−1 s^−1 | k2/Ki (OXA-10; OXA-10, range given jointly for several OXA enzymes): 5 to 9 × 10^3 M^−1 s^−1 | k2/Ki (acylation rate) (OXA-23): 5 to 9 × 10^3 M^−1 s^−1 | k2/Ki (acylation rate) (OXA-24/40): 5 to 9 × 10^3 M^−1 s^−1 | k2/Ki (KPC-2 β-lactamase): 9.3 ± 0.6 × 10^5 M^−1 s^−1 | koff (KPC-2 β-lactamase): 1.0 ± 0.1 × 10^−3 s^−1 | IC50 (OXA 24/40): 190 nM

MIC50 ([3]; Acinetobacter baumannii): 1 µg/mL (≈ 2.61 µM) | MIC90 ([3]; Acinetobacter baumannii): 32 µg/mL (≈ 83.4 µM) | MIC ([3]; Acinetobacter baumannii, strain AB001): 1 µg/mL (≈ 2.61 µM) | MIC ([3]; Acinetobacter baumannii, strain AB002): 2 µg/mL (≈ 5.22 µM) | MIC ([3]; Acinetobacter baumannii, strain AB003): 2 µg/mL (≈ 5.22 µM) | MIC ([3]; Acinetobacter baumannii, strain AB004): 2 µg/mL (≈ 5.22 µM) | MIC ([3]; Acinetobacter baumannii, strain AB005): 1 µg/mL (≈ 2.61 µM) | MIC ([3]; Acinetobacter baumannii, strain AB006): 4 µg/mL (≈ 10.4 µM) | MIC ([3]; Acinetobacter baumannii, strain AB007): 0.5 µg/mL (≈ 1.3 µM) | MIC ([3]; Acinetobacter baumannii, strain AB008): 1 µg/mL (≈ 2.61 µM) | MIC ([3]; Acinetobacter baumannii, strain AB009): 1 µg/mL (≈ 2.61 µM) | MIC ([3]; Acinetobacter baumannii, strain AB010): 1 µg/mL (≈ 2.61 µM) | MIC ([3]; Acinetobacter baumannii, strain AB011): 1 µg/mL (≈ 2.61 µM) | MIC ([3]; Acinetobacter baumannii, strain AB012): 1 µg/mL (≈ 2.61 µM) | MIC ([3]; Acinetobacter baumannii, strain AB013): 1 µg/mL (≈ 2.61 µM) | MIC ([3]; Acinetobacter baumannii, strain AB014): 1 µg/mL (≈ 2.61 µM) | MIC ([3]; Acinetobacter baumannii, strain AB015): 2 µg/mL (≈ 5.22 µM) | MIC ([3]; Acinetobacter baumannii, strain AB016): 0.5 µg/mL (≈ 1.3 µM) | MIC ([3]; Acinetobacter baumannii, strain AB017): 0.5 µg/mL (≈ 1.3 µM) | MIC ([3]; Acinetobacter baumannii, strain AB018): 0.5 µg/mL (≈ 1.3 µM) | MIC ([3]; Acinetobacter baumannii, strain AB019): 0.25 µg/mL (≈ 0.652 µM) | MIC ([3]; Acinetobacter baumannii, strain AB020): 0.5 µg/mL (≈ 1.3 µM) | MIC ([3]; Acinetobacter baumannii, strain AB021): 0.5 µg/mL (≈ 1.3 µM) | MIC ([3]; Acinetobacter baumannii, strain AB022): 0.5 µg/mL (≈ 1.3 µM) | MIC ([3]; Acinetobacter baumannii, strain AB023): 2 µg/mL (≈ 5.22 µM) | MIC ([3]; Acinetobacter baumannii, strain AB024): 0.5 µg/mL (≈ 1.3 µM) | MIC ([3]; Acinetobacter baumannii, strain AB025): 0.5 µg/mL (≈ 1.3 µM) | MIC ([3]; Acinetobacter baumannii, strain AB026): 1 µg/mL (≈ 2.61 µM) | MIC ([3]; Acinetobacter baumannii, strain AB027): 0.5 µg/mL (≈ 1.3 µM) | MIC ([3]; Acinetobacter baumannii, strain AB028): 0.5 µg/mL (≈ 1.3 µM) | MIC ([3]; Acinetobacter baumannii, strain AB029): 0.5 µg/mL (≈ 1.3 µM) | MIC ([3]; Acinetobacter baumannii, strain AB030): 1 µg/mL (≈ 2.61 µM) | MIC ([3]; Acinetobacter baumannii, strain AB031): 1 µg/mL (≈ 2.61 µM) | MIC ([3]; Acinetobacter baumannii, strain AB032): 0.5 µg/mL (≈ 1.3 µM) | MIC ([3]; Acinetobacter baumannii, strain AB033): 1 µg/mL (≈ 2.61 µM) | MIC ([3]; Acinetobacter baumannii, strain AB034): 1 µg/mL (≈ 2.61 µM) | MIC ([3]; Acinetobacter baumannii, strain AB035): 0.25 µg/mL (≈ 0.652 µM) | MIC ([3]; Acinetobacter baumannii, strain AB036): 0.5 µg/mL (≈ 1.3 µM) | MIC ([3]; Acinetobacter baumannii, strain AB037): 0.25 µg/mL (≈ 0.652 µM) | MIC ([3]; Acinetobacter baumannii, strain AB038): 1 µg/mL (≈ 2.61 µM) | MIC ([3]; Acinetobacter baumannii, strain AB039): 1 µg/mL (≈ 2.61 µM) | MIC ([3]; Acinetobacter baumannii, strain AB040): 0.5 µg/mL (≈ 1.3 µM) | MIC ([3]; Acinetobacter baumannii, strain AB041): 0.5 µg/mL (≈ 1.3 µM) | MIC ([3]; Acinetobacter baumannii, strain AB042): 4 µg/mL (≈ 10.4 µM) | MIC ([3]; Acinetobacter baumannii, strain AB043): 16 µg/mL (≈ 41.7 µM) | MIC ([3]; Acinetobacter baumannii, strain AB044): 8 µg/mL (≈ 20.9 µM) | MIC ([3]; Acinetobacter baumannii, strain AB045): 8 µg/mL (≈ 20.9 µM) | MIC ([3]; Acinetobacter baumannii, strain AB046): 16 µg/mL (≈ 41.7 µM) | MIC ([3]; Acinetobacter baumannii, strain AB047): 8 µg/mL (≈ 20.9 µM) | MIC ([3]; Acinetobacter baumannii, strain AB048): 16 µg/mL (≈ 41.7 µM) | MIC ([3]; Acinetobacter baumannii, strain AB049): 32 µg/mL (≈ 83.4 µM) | MIC ([3]; Acinetobacter baumannii, strain AB050): 16 µg/mL (≈ 41.7 µM) | MIC ([3]; Acinetobacter baumannii, strain AB051): 1 µg/mL (≈ 2.61 µM) | MIC ([3]; Acinetobacter baumannii, strain AB052): 2 µg/mL (≈ 5.22 µM) | MIC ([3]; Acinetobacter baumannii, strain AB053): 2 µg/mL (≈ 5.22 µM) | MIC ([3]; Acinetobacter baumannii, strain AB054): 32 µg/mL (≈ 83.4 µM) | MIC ([3]; Acinetobacter baumannii, strain AB055): 8 µg/mL (≈ 20.9 µM) | MIC ([3]; Acinetobacter baumannii, strain AB056): 16 µg/mL (≈ 41.7 µM) | MIC ([3]; Acinetobacter baumannii, strain AB057): 32 µg/mL (≈ 83.4 µM) | MIC ([3]; Acinetobacter baumannii, strain AB058): 2 µg/mL (≈ 5.22 µM) | MIC ([3]; Acinetobacter baumannii, strain AB059): 32 µg/mL (≈ 83.4 µM) | MIC ([3]; Acinetobacter baumannii, strain AB060): 32 µg/mL (≈ 83.4 µM) | MIC ([3]; Acinetobacter baumannii, strain AB061): 32 µg/mL (≈ 83.4 µM) | MIC ([3]; Acinetobacter baumannii, strain AB062): 64 µg/mL (≈ 167 µM) | MIC ([3]; Acinetobacter baumannii, strain AB063): 0.5 µg/mL (≈ 1.3 µM) | MIC ([3]; Acinetobacter baumannii, strain AB064): 0.25 µg/mL (≈ 0.652 µM) | MIC ([3]; Acinetobacter baumannii, strain AB065): 32 µg/mL (≈ 83.4 µM) | MIC ([3]; Acinetobacter baumannii, strain AB066): 0.25 µg/mL (≈ 0.652 µM) | MIC ([3]; Acinetobacter baumannii, strain AB067): 0.25 µg/mL (≈ 0.652 µM) | MIC ([3]; Acinetobacter baumannii, strain AB068): 1 µg/mL (≈ 2.61 µM) | MIC ([3]; Acinetobacter baumannii, strain AB069): 1 µg/mL (≈ 2.61 µM) | MIC ([3]; Acinetobacter baumannii, strain AB070): 2 µg/mL (≈ 5.22 µM) | MIC ([3]; Acinetobacter baumannii, strain AB071): 0.5 µg/mL (≈ 1.3 µM) | MIC ([3]; Acinetobacter baumannii, strain AB072): 0.25 µg/mL (≈ 0.652 µM) | MIC ([3]; Acinetobacter baumannii, strain CCF 1MR): > 8 µg/mL | MIC ([3]; Acinetobacter baumannii, strain CCF 2MR): > 8 µg/mL | MIC ([3]; Acinetobacter baumannii, strain CCF 3MR): > 8 µg/mL | MIC ([3]; Acinetobacter baumannii, strain CCF 4MR): > 8 µg/mL | MIC ([3]; Acinetobacter baumannii, strain CCF 5MR): > 8 µg/mL | MIC ([3]; Acinetobacter baumannii, strain CCF 6MR): > 8 µg/mL | MIC ([3]; Acinetobacter baumannii, strain CCF 7MR): > 8 µg/mL | MIC ([3]; Acinetobacter baumannii, strain CCF 8MR): > 8 µg/mL | MIC ([3]; Acinetobacter baumannii, strain UH AB202): > 8 µg/mL | MIC ([3]; Acinetobacter baumannii, strain UH AB461): > 8 µg/mL | MIC ([3]; Acinetobacter baumannii, strain UH AB477): > 8 µg/mL | MIC ([3]; Acinetobacter baumannii, strain UH AB487): > 8 µg/mL | MIC ([3]; Acinetobacter baumannii, strain UH AB489): > 8 µg/mL | MIC ([3]; Acinetobacter baumannii, strain UH AB490): > 8 µg/mL | MIC ([3]; Acinetobacter baumannii, strain UH AB491): > 8 µg/mL | MIC ([3]; Acinetobacter baumannii, strain UH AB636): > 8 µg/mL | MIC ([3]; Acinetobacter baumannii, strain UH AB660): > 8 µg/mL | MIC ([3]; Acinetobacter baumannii, strain UH AB667): > 8 µg/mL | MIC ([3]; Acinetobacter baumannii, strain VA-432): 64 µg/mL (≈ 167 µM) | MIC ([3]; Acinetobacter baumannii, strain VA-433): 32 µg/mL (≈ 83.4 µM) | MIC ([3]; Acinetobacter baumannii, strain VA-434): 64 µg/mL (≈ 167 µM) | MIC ([3]; Acinetobacter baumannii, strain VA-435): 64 µg/mL (≈ 167 µM) | MIC ([3]; Acinetobacter baumannii, strain VA-436): 64 µg/mL (≈ 167 µM) | MIC ([3]; Acinetobacter baumannii, strain VA-437): 32 µg/mL (≈ 83.4 µM) | MIC ([3]; Acinetobacter baumannii, strain VA-438): 32 µg/mL (≈ 83.4 µM) | MIC ([3]; Acinetobacter baumannii, strain VA-505): 32 µg/mL (≈ 83.4 µM)
Compound: C[C@@H](O)[C@H]1C(=O)N2C(C(=O)O)=C(S[C@@H]3CN[C@H](C(=O)N(C)C)C3)[C@H](C)[C@H]12 [Meropenem]
isolates resistant (R ≥ 8 according to CLSI) ([3]; 72 WRAMC isolates (seventeen of 72)): 24%

Compound: Colistin
Log10 CFU/g (A. baumannii ARC5955; 40 mg/kg SC/q24h): 5.3 log10 CFU/g | Change in log10 CFU/g (A. baumannii ARC5955; 40 mg/kg SC/q24h, 40 mg/kg): −1.4 log10 CFU/g | Change in log10 CFU/g (A. baumannii ARC5955; 40 mg/kg SC/q24h, listed as colistin, 40 mg/kg): −1.36 log10 CFU/g

Compound: NC(=O)[C@@H]1CC[C@@H]2CN1C(=O)N2OS(=O)(=O)O [Avibactam, avibactam]
k2/Ki (OXA-48): 1.4 ± 0.1 × 10^3 M^−1 s^−1 | k2/Ki (OXA-10; OXA-10 from Pseudomonas aeruginosa): 1.1 ± 0.1 × 10^1 M^−1 s^−1 | IC50 (OXA 24/40): […]
